Measurements taken from patent publication US20180327806A1, “MULTIPLEX HIGH-[…] OF MICRO-ORGANISM STRAINS, RELATED KITS, D[…] AND SCREENING ASSAYS” (THE BROAD INSTITUTE, INC., priority 2015, published 2018).

Key:
[1] = test system: PA14 strain with MurA knockdown (hypomorph); assay: Growth of PA14 MurA knockdown (hypomorph) strain with drug; assay type: cell-based, Pseudomonas aeruginosa
Description: Engineering hypersusceptible strains (hypomorph strains): Strain PA14 is engineered so that the expression of selected essential genes may be lowered using a ‘weaker’ promoter. […] 30). It is possible to use a promoter library of varying strengths that was developed to drive GFP expression in E. coli (Davis, J. H., A. J. Rubin, and R. T. Sauer, Design, construction and characterization of a set of insulated bacterial promoters. Nucleic Acids Res, 2011. 39(3): p. 1131-41). […] The weakest promoter that provides the lowest tolerable level of the protein that still yields a viable bacterium may be used for each essential gene to create a hypersensitive strain. It is also proposed to construct control strains by knocking out dihydrofolate reductase dhfr (which is the target of trimethoprim), dihydropteroate synthetase dhps (which is the target of sulfamethoxazole), murA (which is the target of fosfomycin) and ostA (which is the OMP target of POL7001 [Srinivas, N., et al., Peptidomimetic antibiotics target outer-membrane biogenesis in Pseudomonas aeruginosa. Science, 2010. 327(5968): p. 1010-3.]). Then, it is possible to measure the MIC for each of these compounds against their respective strains compared to wild-type PA14.
FIG. 5 illustrates the use of variable promoters for generating and selecting hypomorph strains. […]

[2] = test system: dfrA hypomorph strain; assay type: cell-based, M. tuberculosis; conditions: drug targeting dfrA

Row | Compound | sensitivity of MurA knockdown PA14 strain to drug [1] | sensitivity of dfrA hypomorph strain to drug (dose response curve) [2]
1 | C[C@@H]1O[C@@H]1P(=O)(O)O [fosfomycin] | hypersensitive | –
2 | CN(Cc1cnc2nc(N)nc(N)c2n1)c1ccc(C(=O)N[C@@H](CCC(=O)O)C(=O)O)cc1 [methotrexate] | – | hypersensitive
